We go through 22 molecules from ChEMBL document CHEMBL6092179, “Discovery of CLKs inhibitors for the treatment of non-small cell lung cancer” (Eur J Med Chem, 2024).

Molecules are shown by their SMILES. Active and inactive are the calls of the source. No cut-off for these calls is given here.

Experiment [1] deals with NCI-H1299. The experiment in a line: cells. As to conditions: Homo sapiens, NCI-H1299, 48 h.
Description: Antiproliferative activity against human NCI-H1299 cells assessed as inhibition of cell growth incubated for 48 hrs by MTT assay
The target in experiment [2] is Dual specificity protein kinase CLK3 (Homo sapiens, UniProt P49761). The experiment is described as follows: Inhibition of CLK3 (unknown origin) by ADP-Glo assay. On the technique in general: In ADP-Glo the light output rises with the ADP produced.
In experiment [3] the target is T1, Dual specificity protein kinase CLK2 (Homo sapiens, UniProt P49760). The experiment in a line: Inhibition of CLK2 (unknown origin) by ADP-Glo assay.
Target sequence in this assay (P49760 whole entry): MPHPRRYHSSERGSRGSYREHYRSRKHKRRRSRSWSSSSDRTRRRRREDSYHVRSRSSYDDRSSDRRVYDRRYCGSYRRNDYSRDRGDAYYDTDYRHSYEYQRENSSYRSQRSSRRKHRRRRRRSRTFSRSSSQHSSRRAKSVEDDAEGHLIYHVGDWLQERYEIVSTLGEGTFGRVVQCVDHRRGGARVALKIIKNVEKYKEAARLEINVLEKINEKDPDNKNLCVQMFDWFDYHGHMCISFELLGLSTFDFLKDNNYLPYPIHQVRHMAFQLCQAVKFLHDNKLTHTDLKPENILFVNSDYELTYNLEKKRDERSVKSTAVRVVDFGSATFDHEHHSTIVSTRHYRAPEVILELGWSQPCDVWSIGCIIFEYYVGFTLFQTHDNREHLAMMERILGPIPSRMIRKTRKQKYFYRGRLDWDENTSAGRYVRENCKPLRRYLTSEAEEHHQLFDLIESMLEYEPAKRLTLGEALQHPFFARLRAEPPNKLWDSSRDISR
In experiment [4] the test system is NCI-H1299. The experiment is described as follows: Inhibition of colony formation in human NCI-H1299 cells at 1 uM incubated for 7 days by crystal violet staining based analysis. The format is functional, cell-based. As to conditions: time 7.0 day.
Experiment [5] addresses T1, Dual specificity protein kinase CLK2. As to conditions: dose 20.0 nM.
Target sequence in this assay (P49760 whole entry, looked up): as the sequence (P49760 whole entry) above
Description: Inhibition of CLK2 (unknown origin) at 20 nM by ADP-Glo assay relative to control
Experiment [6] relates to Osimertinib-resistant NCI-H1975 cell. The experiment is described as follows: cells. As to conditions: Homo sapiens, 48 h.
Description: Antiproliferative activity against human Osimertinib-resistant NCI-H1975 cell assessed as inhibition of cell growth incubated for 48 hrs by MTT assay
A further experiment concerns NCI-H1975. The experiment is described as follows: cells. As to conditions: Homo sapiens, NCI-H1975, 48 h.
A short description of a further experiment: cells. As to conditions: Homo sapiens, Osimertinib-resistant HCC827AR cell, 48 h.
The next experiment concerns HCC827. The experiment is described as follows: cells. As to conditions: Homo sapiens, HCC827, 48 h.
A further experiment has as its system A549. The experiment in a line: cells. As to conditions: Homo sapiens, A549, 48 h.

Dual specificity protein kinase CLK3, sequence (P49761 whole entry): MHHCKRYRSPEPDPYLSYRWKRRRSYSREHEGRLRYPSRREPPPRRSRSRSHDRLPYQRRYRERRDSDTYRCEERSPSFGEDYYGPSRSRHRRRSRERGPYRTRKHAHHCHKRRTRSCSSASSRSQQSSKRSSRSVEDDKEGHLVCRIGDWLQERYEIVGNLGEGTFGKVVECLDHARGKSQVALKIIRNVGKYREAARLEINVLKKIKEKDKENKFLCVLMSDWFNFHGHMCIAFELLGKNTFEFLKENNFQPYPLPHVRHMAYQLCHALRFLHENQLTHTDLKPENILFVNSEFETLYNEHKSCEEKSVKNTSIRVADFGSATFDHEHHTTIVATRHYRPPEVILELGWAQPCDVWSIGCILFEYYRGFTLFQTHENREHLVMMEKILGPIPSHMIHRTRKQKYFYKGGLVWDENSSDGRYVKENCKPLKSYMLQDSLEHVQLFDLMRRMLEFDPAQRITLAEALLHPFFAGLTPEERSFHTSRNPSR
Description for A549: Antiproliferative activity against human A549 cells assessed as inhibition of cell growth incubated for 48 hrs by MTT assay
Description for HCC827: Antiproliferative activity against human HCC827 cells assessed as inhibition of cell growth incubated for 48 hrs by MTT assay

As for `CC(C)CC(=O)Nc1cncc(-c2ccc3[nH]nc(-c4nc(-c5ccsc5)c[nH]4)c3c2)c1`, the IC50 – broadly, the midpoint of a concentration-inhibition curve – in the experiment on NCI-H1299 [1] came out at 910 nM.

The molecule `FC1(F)CCN(Cc2cncc(-c3ccc4[nH]nc(-c5nc(-c6ccsc6)c[nH]5)c4c3)c2)C1` yielded an IC50 in the experiment on NCI-H1299 [1] of 1380 nM.

In the experiment with NCI-H1299 [1], `CC(C)CC(=O)Nc1cncc(-c2ccc3[nH]nc(-c4nc(-c5ccco5)c[nH]4)c3c2)c1` gave an IC50 of 1420 nM. This IC50 and that of the molecule before are within 1.5-fold of each other.

Turning to `FC1(F)CCN(Cc2cncc(-c3ccc4[nH]nc(-c5nc(-c6cccnc6)c[nH]5)c4c3)c2)C1`, the IC50 with NCI-H1299 [1] was 260 nM.

Regarding `CC(C)C[C@H](N)COc1cncc(-c2ccc3[nH]nc(-c4nc(-c5ccco5)c(-c5ccco5)[nH]4)c3c2)c1`, the midpoint of inhibition in the experiment on NCI-H1299 [1], the IC50, lay at 1680 nM.

Molecule `CCc1[nH]c(-c2n[nH]c3ccc(-c4cncc(NC(=O)CC(C)C)c4)cc23)nc1C` showed an IC50 in the experiment on NCI-H1299 [1] of 1620 nM.

In the experiment on NCI-H1299 [1], `FC1(F)CCN(Cc2cncc(-c3ccc4[nH]nc(-c5nc(-c6ccco6)c[nH]5)c4c3)c2)C1` showed an IC50 of 720 nM.

In turn, `Cc1nc(-c2n[nH]c3ccc(-c4cncc(CN5CCC(F)(F)C5)c4)cc23)[nH]c1-c1ccccc1` registered an IC50 in the experiment with NCI-H1299 [1] of 1620 nM.

Molecule `Cc1nc(-c2n[nH]c3ccc(-c4cncc(NC(=O)CC(C)C)c4)cc23)[nH]c1-c1ccccc1` displayed an IC50 in the experiment on NCI-H1299 [1] of 1380 nM.

`CC(C)C[C@H](N)COc1cncc(-c2ccc3[nH]nc(-c4nc(-c5ccccc5)c(-c5ccccc5)[nH]4)c3c2)c1` registered an IC50 with NCI-H1299 [1] of 2380 nM.

As for `CC(C)C[C@H](N)COc1cncc(-c2ccc3[nH]nc(-c4nc(-c5ccsc5)c[nH]4)c3c2)c1`, in the experiment with NCI-H1299 [1], the IC50 was determined as 1150 nM.

Turning to `FC1(F)CCN(Cc2cncc(-c3ccc4[nH]nc(-c5nc(-c6ccccc6)c[nH]5)c4c3)c2)C1`, half-maximal inhibition in the experiment with NCI-H1299 [1] (IC50) was put at 1270 nM.

`Cc1nc(-c2n[nH]c3ccc(-c4cncc(OC[C@@H](N)CC(C)C)c4)cc23)[nH]c1-c1ccccc1` registered a half-inhibitory concentration (IC50) in the experiment with NCI-H1299 [1] of 450 nM.

In the experiment with NCI-H1299 [1], `CC(C)CC(=O)Nc1cncc(-c2ccc3[nH]nc(-c4nc(-c5cccc(C(F)(F)F)c5)c[nH]4)c3c2)c1` registered an IC50 of 3070 nM. This IC50 is about 6.8-fold higher than that of the molecule before.

Turning to `FC1(F)CCN(Cc2cncc(-c3ccc4[nH]nc(-c5nc(-c6ccccc6)c(-c6ccccc6)[nH]5)c4c3)c2)C1`, the IC50 in the experiment with NCI-H1299 [1] was 6580 nM.

With `FC1(F)CCN(Cc2cncc(-c3ccc4[nH]nc(-c5nc(-c6cccc(C(F)(F)F)c6)c[nH]5)c4c3)c2)C1`, the IC50 in the experiment on NCI-H1299 [1] came to 2660 nM.

In turn, `CC(C)CC(=O)Nc1cncc(-c2ccc3[nH]nc(-c4nc(-c5ccco5)c(-c5ccco5)[nH]4)c3c2)c1` returned an IC50 with NCI-H1299 [1] of 1530 nM.

As for `CC(C)C[C@H](N)COc1cncc(-c2ccc3[nH]nc(-c4nc(-c5ccco5)c[nH]4)c3c2)c1`, in the experiment on NCI-H1299 [1], the IC50 was 480 nM.

Turning to `CC(C)C[C@H](N)COc1cncc(-c2ccc3[nH]nc(-c4nc(-c5cccc(C(F)(F)F)c5)c[nH]4)c3c2)c1`, in the experiment on NCI-H1299 [1], the IC50 stood at 1160 nM.

On to `CC(C)CC(=O)Nc1cncc(-c2ccc3[nH]nc(-c4nc(-c5cccnc5)c[nH]4)c3c2)c1`, for which the IC50 in the experiment with NCI-H1299 [1] was determined as 820 nM.

As for `Cc1[nH]nc2ccc(-c3cncc(OC[C@@H](N)CC(C)C)c3)cc12`, the IC50 is over 100 nM in experiment [2]; 4.1 nM in experiment [3]; 1920 nM in [6]; 1720 nM in the experiment on NCI-H1975; 3670 nM in “cells”; 3950 nM in the experiment on HCC827. Moreover, the IC50 in the experiment on A549 was 3950 nM; in the experiment on NCI-H1299 [1], 2510 nM. In addition, the inhibition (in general, the change of the read-out against control, counted positive when it falls) in the experiment on NCI-H1299 [4] is “inactive”. In addition, in [5], the inhibition came out at 98.5%.

Take `CC(C)C[C@H](N)COc1cncc(-c2ccc3[nH]nc(-c4nc(-c5cccnc5)c[nH]4)c3c2)c1`: the IC50 in the experiment with NCI-H1299 [1] stood at 700 nM.
